Assay results as given in PMC4947980 (Journal of Medicinal Chemistry, 2016).
Values after ≈ are worked out from the molar mass of the structure shown. Values joined by “and” are separate entries in the source; they are usually repeats but may differ in a detail not shown here. Equal values may be shown once.

Columns and labels:
[1] = test system: nonreplicating M. tuberculosis; experiment: microbe, parasite or virus in culture; assay type: cell-based, Mycobacterium tuberculosis mc^26220 (ΔpanCDΔlysA); settings: for activity against nonreplicating M. tuberculosis, in words: multistress nonreplicating model; for NR-MIC90 3 days OD580 = 0.01 / NR-MIC90 3 days OD580 = 0.1: 3 days exposure
[2] = test system: replicating M. tuberculosis; experiment: MIC90 against replicating M. tuberculosis; assay type: cell-based, Mycobacterium tuberculosis mc^26220 (ΔpanCDΔlysA); settings: for R-MIC90 3 days OD580 = 0.01: replicating; for activity against replicating M. tuberculosis on addition of clavulanate: data not shown
[3] = test system: nonreplicating wild-type M. tuberculosis; assay type: cell-based, Mycobacterium tuberculosis H37Rv; settings: for bactericidal activity against nonreplicating wild-type M. tuberculosis (Figure S2): in words
[4] = test system: intracellular M. tuberculosis; settings: for CFU reduction of intracellular M. tuberculosis: IFNγ-activated macrophages, 100 μg/mL, 4 days (1) or 3 days (5)
[5] = test system: nonreplicating M. tuberculosis; experiment: Charcoal agar resazurin assay; assay type: cell-based; settings: for dose-dependent decrease of CARA fluorescence, effect of NaNO2: with or without 0.5 mM NaNO2, 7 days, OD580 0.1 or 0.01
[6] = Mouse liver microsomal stability; assay type: in vitro ADME; settings: assayed at 0-60 min
[7] = Parallel artificial membrane permeability assay; assay type: in vitro ADME
[8] = Hydrolytic stability at pH 2, 7 and 12; assay type: physicochemical; settings: percent remaining after a 4 h incubation at 37 °C
Solubility at pH 7.4 = assay type: physicochemical; settings: after shaking at room temperature for 4 h
Plasma stability, mouse = settings: 1 μg/mL, 37 °C, parent ion monitored
[9] = Stability in cell-free PBS and nonreplicating medium; assay type: physicochemical; settings: day 6; for d6: % remaining in PBS: cell-free PBS pH 7.4, 37 °C; for d6: % remaining NR medium + 0.5 mM NaNO2: cell-free nonreplicating medium pH 5.0 with 0.5 mM NaNO2, 37 °C; for d6: % remaining NR medium: cell-free nonreplicating medium pH 5.0 without NaNO2, 37 °C
[10] = Human liver microsomal stability; assay type: in vitro ADME; settings: liver microsomes, human liver microsomes t1/2, assayed at 0-60 min
M. tuberculosis = settings: cited from earlier work
[11] = nonreplicating, 6 days exposure

COC(=O)C1=C(C)CS[C@@H]2[C@H](NC(=O)[C@H](N)c3ccccc3)C(=O)N12 [4a]
activity against nonreplicating M. tuberculosis, in words [1]: poorly active
activity against replicating M. tuberculosis, in words [2]: completely inactive

CCCOC(=O)C1=C(C)CS[C@@H]2[C@H](NC(=O)[C@H](N)c3ccccc3)C(=O)N12 [4b]
MIC90 ([1]; Mycobacterium tuberculosis, read-out: NR d7 OD=0.1 MIC90): 15.5 µg/mL (≈ 39.8 µM)

CC1=C(c2nc(C)no2)N2C(=O)[C@@H](NC(=O)[C@H](N)c3ccccc3)[C@H]2SC1 [4c]
activity against nonreplicating M. tuberculosis, in words [1]: poorly active
activity against replicating M. tuberculosis, in words [2]: completely inactive

CCCCOC(=O)C1=C(C)CS[C@@H]2[C@H](NC(=O)CCc3ccccc3)C(=O)N12 [12e]
bactericidal activity against nonreplicating wild-type M. tuberculosis (Figure S2) [3]: bactericidal

CCOC(=O)C1=C(C)CS[C@@H]2[C@H](NC(=O)CCc3ccc(OC)cc3)C(=O)N12 [12i]
bactericidal activity against nonreplicating wild-type M. tuberculosis (Figure S2) [3]: bactericidal

CC1=C(c2nc(C)no2)N2C(=O)[C@@H](NC(=O)COc3ccc(Cl)cc3)[C@H]2SC1 [18d]
bactericidal activity against nonreplicating wild-type M. tuberculosis (Figure S2) [3]: bactericidal

CC1=C(c2nc(C)no2)N2C(=O)[C@@H](NC(=O)OCC(Cl)(Cl)Cl)[C@H]2SC1 [19d]
bactericidal activity against nonreplicating wild-type M. tuberculosis (Figure S2) [3]: bactericidal

CCCc1noc(C2=C(C)CS[C@@H]3[C@H](NC(=O)CCc4ccc(OC)cc4)C(=O)N23)n1 [21b]
bactericidal activity against nonreplicating wild-type M. tuberculosis (Figure S2) [3]: bactericidal

CCCc1noc(C2=C(C)CS[C@@H]3[C@H](NC(=O)COc4ccc(Cl)cc4)C(=O)N23)n1 [22c]
bactericidal activity against nonreplicating wild-type M. tuberculosis (Figure S2) [3]: bactericidal

C[C@@H](O)[C@H]1C(=O)N2C(C(=O)O)=C(S[C@@H]3CN[C@H](C(=O)N(C)C)C3)[C@H](C)[C@H]12 [Meropenem, reference compound]
enhancement of replicating MIC90 by clavulanate ([2]; addition of clavulanate): 4 fold

CC1=C(C(=O)O)N2C(=O)[C@@H](NC(=O)[C@H](N)c3ccccc3)[C@H]2SC1 [cephalexin 4, cephalexin, reference compound]
activity against nonreplicating M. tuberculosis, in words [1]: inactive
NR-MIC90 3 days OD580 = 0.01 ([1]; nonreplicating, OD580 = 0.01): 97.93 µg/mL
NR-MIC90 3 days OD580 = 0.1 ([1]; nonreplicating): 61.35 µg/mL
NR-MIC90 6 days OD580 = 0.1 [1, 11]: 70.42 µg/mL
R-MIC90 3 days OD580 = 0.01 [2]: 33.99 µg/mL

CCCOC(=O)C1=C(C)CS[C@@H]2[C@H](NC(=O)COc3ccccc3)C(=O)N12 [compound 1, Propyl (6R,7R)-3-Methyl-8-oxo-7-(2-phenoxyacetamido)-5-thia-1-azabicyclo[4.2.0]oct-2-ene-2-carboxylate]
CFU reduction of intracellular M. tuberculosis [4]: 1–2 log10
enhancement of activity by nitrite ([5]; CARA, OD580 0.01, 0.5 mM NaNO2): 32- to 64 fold
dose-dependent decrease of CARA fluorescence, effect of NaNO2 [5]: strongly enhanced by the addition of NaNO2
mouse liver microsomes t1/2 [6]: rapidly metabolized
PAMPA log Pe [7]: –5.15
pH 2 stability [8]: 100% and 110%
pH 12 stability [8]: 0.000%
NR-MIC90 3 days OD580 = 0.01 ([1]; nonreplicating, OD580 = 0.01): 0.90 µg/mL
NR-MIC90 3 days OD580 = 0.1 ([1]; nonreplicating): 1.76 µg/mL
NR-MIC90 6 days OD580 = 0.01 ([1]; nonreplicating, 6 days exposure, OD580 = 0.01): 0.64 µg/mL
NR-MIC90 6 days OD580 = 0.1 [1, 11]: 1.05 µg/mL
activity against replicating M. tuberculosis on addition of clavulanate ([2]; addition of clavulanate): did not lead to activity
R-MIC90 3 days OD580 = 0.01 [2]: >100 µg/mL
solubility (Solubility at pH 7.4): 22.7 µM (≈ 8.86 µg/mL)
solubility at 4 h (Solubility at pH 7.4; pH 7.4, solubility): 23 µM (≈ 8.98 µg/mL)
stability in mouse plasma (time to complete transformation) (Plasma stability, mouse): < 5 min
concentration that reduced colony-forming units by 2 log10 [3]: 0.7–0.8 μg/mL
d6: % remaining in PBS [9]: stable
d6: % remaining NR medium + 0.5 mM NaNO2 [9]: stable
d6: % remaining NR medium [9]: stable

CCCOC(=O)N[C@@H]1C(=O)N2C(C(=O)OCCC)=C(C)CS[C@H]12 [compound 2]
NR-MIC90 3 days OD580 = 0.01 ([1]; nonreplicating, OD580 = 0.01): 3.11 µg/mL
NR-MIC90 3 days OD580 = 0.1 ([1]; nonreplicating): 2.61 µg/mL
NR-MIC90 6 days OD580 = 0.1 [1, 11]: 0.52 µg/mL
activity against replicating M. tuberculosis on addition of clavulanate ([2]; addition of clavulanate): did not lead to activity
R-MIC90 3 days OD580 = 0.01 [2]: 55.44 µg/mL
d6: % remaining in PBS [9]: stable
d6: % remaining NR medium + 0.5 mM NaNO2 [9]: stable
d6: % remaining NR medium [9]: stable

CCCN[C@@H]1C(=O)N2C(C(=O)OCCC)=C(C)CS[C@H]12 [compound 3]
activity against nonreplicating M. tuberculosis, in words [1]: significant activity
NR-MIC90 3 days OD580 = 0.01 ([1]; nonreplicating, OD580 = 0.01): 0.7 µg/mL
NR-MIC90 3 days OD580 = 0.1 ([1]; nonreplicating): 2.69 µg/mL
NR-MIC90 6 days OD580 = 0.1 [1, 11]: 0.45 µg/mL
activity against replicating M. tuberculosis on addition of clavulanate ([2]; addition of clavulanate): did not lead to activity
R-MIC90 3 days OD580 = 0.01 [2]: >100 µg/mL
d6: % remaining NR medium + 0.5 mM NaNO2 [9]: unstable

CC1=C(c2nc(C)no2)N2C(=O)[C@@H](NC(=O)COc3ccccc3)[C@H]2SC1 [compound 5, N-((6R,7R)-3-Methyl-2-(3-methyl-1,2,4-oxadiazol-5-yl)-8-oxo-5-thia-1-azabicyclo[4.2.0]oct-2-en-7-yl)-2-phenoxyacetamide]
CFU reduction of intracellular M. tuberculosis [4]: 1–2 log10
IFNγ dependence of bactericidal activity against intracellular M. tuberculosis ([4]; macrophages activated or not with 50 ng/mL IFNγ): strictly IFNγ dependent
dose-dependent decrease of CARA fluorescence, effect of NaNO2 [5]: strongly enhanced by the addition of NaNO2
mouse liver microsomes t1/2 [6]: rapidly metabolized
PAMPA log Pe [7]: –4.87
pH 2 stability [8]: 100%
pH 12 stability [8]: 0.000%
solubility (Solubility at pH 7.4): 83.7 µM (≈ 32.3 µg/mL)
stability in mouse plasma (time to complete transformation) (Plasma stability, mouse): < 5 min
concentration that reduced colony-forming units by 2 log10 [3]: 0.7–0.8 μg/mL
bactericidal activity against nonreplicating wild-type M. tuberculosis (Figure S2) [3]: bactericidal
half-life [10]: ~80 min
d6: % remaining NR medium + 0.5 mM NaNO2 [9]: stable

COCC1=C(C)CS[C@@H]2[C@H](NC(=O)COc3ccccc3)C(=O)N12 [compound 10]
activity against nonreplicating M. tuberculosis, in words [1]: inactive

CCCc1noc(C2=C(C)CS[C@@H]3[C@H](NC(=O)c4ccc(Cl)cc4)C(=O)N23)n1 [compound 23]
bactericidal activity against nonreplicating wild-type M. tuberculosis (Figure S2) [3]: bactericidal

C[C@@H](O)[C@H]1C(=O)N2C(C(=O)O)=C([C@H]3CCCO3)S[C@H]12 [faropenem, reference compound]
activity against nonreplicating M. tuberculosis, in words [1]: inactive
killing of replicating and nongrowing M. tuberculosis (M. tuberculosis): kill both replicating and nongrowing M. tuberculosis
